The text below walks through data of US8551999B2, “Heterocyclic compound and pharmaceutical composition thereof” (Otsuka Pharmaceutical Co., Ltd., priority 2007, dated 2013).

As for `Br.Br.Cn1c(C(=O)N2CCN(Cc3ccc(C#N)cn3)CC2)cc2cc(Oc3ccc(NC(=O)c4ccc(Cl)c(Cl)c4)cn3)ccc21` [Example 386, 3,4-Dichloro-N-(6-{2-[4-(5-cyanopyridin-2-ylmethyl)piperazine-1-carbonyl]-1-methyl-1H-indol-5-yloxy}pyridin-3-yl)benzamide dihydrobromide], the melting point was in the range of 216 to 219 °C.

`COc1ccc(CN2CCN(C(=O)c3cc4cc(Oc5ccc(N(C)C(=O)c6ccc(C(F)(F)F)cc6)cn5)ccc4n3C)CC2)nc1.O=C(O)/C=C\C(=O)O` [Example 387, N-(6-{2-[4-(5-Methoxypyridin-2-ylmethyl)piperazine-1-carbonyl]-1-methyl-1H-indol-5-yloxy}pyridin-3-yl)-N-methyl-4-trifluoromethyl-benzamide maleate] registered a melting point of 143 to 144 °C.

In turn, `Br.Br.COc1ccc(CN2CCN(C(=O)c3cc4cc(Oc5ccc(NC(=O)c6ccc(Cl)c(Cl)c6)cn5)ccc4n3C)CC2)nc1` [Example 388, 3,4-Dichloro-N-(6-{2-[4-(5-methoxypyridin-2-ylmethyl)piperazine-1-carbonyl]-1-methyl-1H-indol-5-yloxy}pyridin-3-yl)benzamide dihydrobromide] displayed a melting point of 223 to 225 °C.

`COc1ccc(CN2CCN(C(=O)c3cc4cc(Oc5ccc(N(C)C(=O)c6ccc(Cl)c(Cl)c6)cn5)ccc4n3C)CC2)nc1.O=C(O)/C=C\C(=O)O` [Example 389, 3,4-Dichloro-N-(6-{2-[4-(5-methoxypyridin-2-ylmethyl)piperazine-1-carbonyl]-1-methyl-1H-indol-5-yloxy}pyridin-3-yl)-N-methyl-benzamide maleate] registered a melting point of 155 to 156 °C.

Regarding `Br.CCc1ccc(CN2CCN(C(=O)c3cc4cc(Oc5ccc(NC(=O)c6ccc(C(F)(F)F)cc6)cn5)ccc4n3C)CC2)cc1` [Example 390, N-(6-{2-[4-(4-Ethylbenzyl)piperazine-1-carbonyl]-1-methyl-1H-indol-5-yloxy}pyridin-3-yl)-4-trifluoromethylbenzamide hydrobromide], the melting point lay within 239 to 241 °C.

The compound `C[C@@H]1CN(Cc2ccccn2)CCN1C(=O)c1cc2cc(Oc3ccc(NC(=O)c4ccc(C(F)(F)F)cc4)cn3)ccc2n1C.O=C(O)C(=O)O.O=C(O)C(=O)O` [Example 392, N-{6-[1-Methyl-2-((R)-2-methyl-4-pyridin-2-ylmethylpiperazine-1-carbonyl)-1H-indol-5-yloxy]pyridin-3-yl}-4-trifluoromethyl-benzamide dioxalate] yielded a melting point of 128 to 130 °C.

In turn, `COc1ccc(CN2CCN(C(=O)c3cc4cc(Oc5ccc(NC(=O)c6ccc(C(F)(F)F)cc6)cn5)ccc4n3C)[C@H](C)C2)cc1.O=C(O)C(=O)O` [Example 393, N-(6-{2-[(R)-4-(4-Methoxybenzyl)-2-methylpiperazine-1-carbonyl]-1-methyl-1H-indol-5-yloxy}pyridin-3-yl)-4-trifluoromethyl-benzamide oxalate] showed a melting point of 161 to 163 °C.

For the compound `COc1ccc(CN2CCN(C(=O)c3cc4cc(Oc5ccc(NC(=O)c6ccc(C(F)(F)F)cc6)cn5)ccc4n3C)[C@@H](C)C2)cc1.O=C(O)C(=O)O` [Example 396, N-(6-{2-[(S)-4-(4-Methoxybenzyl)-2-methylpiperazine-1-carbonyl]-1-methyl-1H-indol-5-yloxy}pyridin-3-yl)-4-trifluoromethyl-benzamide oxalate], the melting point was in the range of 159 to 160 °C.

In turn, `C[C@H]1CN(Cc2ccccn2)CCN1C(=O)c1cc2cc(Oc3ccc(NC(=O)c4ccc(C(F)(F)F)cc4)cn3)ccc2n1C.O=C(O)C(=O)O.O=C(O)C(=O)O` [Example 397, N-{6-[1-Methyl-2-((S)-2-methyl-4-pyridin-2-ylmethylpiperazine-1-carbonyl)-1H-indol-5-yloxy]pyridin-3-yl}-4-trifluoromethyl-benzamide dioxalate] gave a melting point of 126 to 127 °C.

The compound `Br.Cn1c(C(=O)N2CCN(Cc3ccc(OC(F)F)cc3)CC2)cc2cc(Oc3ccc(NC(=O)c4ccc(C(F)(F)F)cc4)cn3)ccc21` [Example 400, N-(6-{2-[4-(4-Difluoromethoxybenzyl)piperazine-1-carbonyl]-1-methyl-1H-indol-5-yloxy}pyridin-3-yl)-4-trifluoromethylbenzamide hydrobromide] showed a melting point of 229 to 231 °C.

`Br.Cn1c(C(=O)N2CCN(Cc3ccc(OC(F)(F)C(F)F)cc3)CC2)cc2cc(Oc3ccc(NC(=O)c4ccc(C(F)(F)F)cc4)cn3)ccc21` [Example 402, N-[6-(1-Methyl-2-{4-[4-(1,1,2,2-tetrafluoroethoxy)benzyl]-piperazine-1-carbonyl}-1H-indol-5-yloxy)pyridin-3-yl]-4-tri-fluoromethylbenzamide hydrobromide] returned a melting point of 255 to 257 °C.

Turning to `Br.Br.Cc1cc(Oc2ccc3c(c2)cc(C(=O)N2CCN(Cc4cccnc4)CC2)n3C)ncc1NC(=O)c1ccc(C(F)(F)F)cc1` [Example 404, N-{4-Methyl-6-[1-methyl-2-(4-pyridin-3-ylmethylpiperazine-1-carbonyl)-1H-indol-5-yloxy]pyridin-3-yl}-4-trifluoromethyl-benzamide dihydrobromide], the melting point fell in the range of 215 to 217 °C.

Compound `Br.Cn1c(C(=O)N2CCN(Cc3ccc(OCC(F)F)cc3)CC2)cc2cc(Oc3ccc(NC(=O)c4ccc(Cl)c(Cl)c4)cn3)ccc21` [Example 407, 3,4-Dichloro-N-[6-(2-{4-[4-(2,2-difluoroethoxy)benzyl]piperazine-1-carbonyl}-1-methyl-1H-indol-5-yloxy)pyridin-3-yl]benzamide hydrobromide] gave a melting point of 241 to 245 °C.

As for `CN(C(=O)c1ccc(C(F)(F)F)cc1)c1ccc(Oc2ccc3c(c2)cc(C(=O)N2CCN(Cc4ccc(OCCF)cc4)CC2)n3C)nc1.O=C(O)/C=C\C(=O)O` [Example 408, N-[6-(2-{4-[4-(2-Fluoroethoxy)benzyl]piperazine-1-carbonyl}-1-methyl-1H-indol-5-yloxy)pyridin-3-yl]-N-methyl-4-trifluoromethyl-benzamide maleate], the melting point lay in the range of 152 to 154 °C.

Regarding `Br.Cn1c(C(=O)N2CCN(Cc3ccc(OCCF)cc3)CC2)cc2cc(Oc3ccc(NC(=O)c4ccc(Cl)c(Cl)c4)cn3)ccc21` [Example 409, 3,4-Dichloro-N-[6-(2-{4-[4-(2-fluoroethoxy)benzyl]piperazine-1-carbonyl}-1-methyl-1H-indol-5-yloxy)pyridin-3-yl]benzamide hydrobromide], the melting point fell in the range of 240 to 243 °C.

In turn, `CC(C)Oc1ccc(CN2CCN(C(=O)c3cc4cc(Oc5ccc(N(C)C(=O)c6ccc(C(F)(F)F)cc6)cn5)ccc4n3C)CC2)cc1.O=C(O)/C=C\C(=O)O` [Example 410, N-(6-{2-[4-(4-Isopropoxybenzyl)piperazine-1-carbonyl]-1-methyl-1H-indol-5-yloxy}pyridin-3-yl)-N-methyl-4-trifluoromethyl-benzamide maleate] returned a melting point of 140 to 142 °C.

`CCCc1ccc(CN2CCN(C(=O)c3cc4cc(Oc5ccc(N(C)C(=O)c6ccc(C(F)(F)F)cc6)cn5)ccc4n3C)CC2)cc1.O=C(O)/C=C\C(=O)O` [Example 411, N-Methyl-N-(6-{1-methyl-2-[4-(4-propylbenzyl)piperazine-1-carbonyl]-1H-indol-5-yloxy}pyridin-3-yl)-4-trifluoromethyl-benzamide maleate] gave a melting point of 132 to 134 °C.
